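These data come from cells grown in 96-well plates and exposed to compound for 48 hours at five concentrations. Here, GI50 denotes the concentration required for 50% inhibition of growth. TGI denotes the concentration required for complete inhibition of growth.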

Some test systems named below: DU-145 prostate; 786-0 renal; CAKI-1 renal; OVCAR-8 ovarian; MDA-MB-435; IGROV1 ovarian; PC-3 prostate; SN12C renal; A549 NSCLC; HL-60(TB) leukemia; SK-MEL-2 melanoma.
Common to all, as to assay: inhibition of tumour cell growth, NCI panel, 48 h

Regarding `Cc1cc(C)c2c(=O)n(CC(O)CN3CCN(c4ncccn4)CC3)sc2n1` (stereo not given), the TGI in the test with DU-145 prostate is 30.2 µM; in the test on 786-0 renal, 27.6 µM; in the test on CAKI-1 renal, 39.5 µM; with OVCAR-8 ovarian it was 38.2 µM; with MDA-MB-435 it was 30.1 µM; in the test on IGROV1 ovarian it was more than 100 µM. The TGI in the test on PC-3 prostate came to 32.8 µM; with SN12C renal it was 31.6 µM; in the test on A549 NSCLC, 31.2 µM; with HL-60(TB) leukemia, 38.9 µM; with SK-MEL-2 melanoma it was 32.7 µM.
Take `Nc1nc(-c2ccccc2)cc(-c2ccc(F)cc2)c1-c1ccc(Cl)cc1`: the TGI with DU-145 prostate, in the test on 786-0 renal, in the test with CAKI-1 renal, in the test on OVCAR-8 ovarian, in the test on MDA-MB-435 and in the test with IGROV1 ovarian was more than 100 µM throughout. Also, the TGI in the test on PC-3 prostate, with SN12C renal, in the test with A549 NSCLC, in the test with HL-60(TB) leukemia and in the test on SK-MEL-2 melanoma was more than 100 µM throughout.
For `CCOC(=O)Cn1c(=O)c2cc(C)cc3c(Cl)nc4c(OC)c(OC)cc1c4c32`, the TGI in the test with DU-145 prostate, with 786-0 renal, with CAKI-1 renal, in the test with OVCAR-8 ovarian, with MDA-MB-435 and in the test with IGROV1 ovarian was more than 100 µM in each case. Besides, the TGI in the test with PC-3 prostate, in the test on A549 NSCLC, with HL-60(TB) leukemia and in the test on SK-MEL-2 melanoma was more than 100 µM in each case.
On to `Cc1cc(S(=O)(=O)Nc2nc(N)n(-c3ccccc3)n2)c(S)cc1Cl`, for which the TGI in the test with DU-145 prostate, in the test on 786-0 renal, in the test on CAKI-1 renal, with OVCAR-8 ovarian, in the test on MDA-MB-435 and with IGROV1 ovarian was more than 100 µM each time. Besides, the TGI in the test on PC-3 prostate, in the test on SN12C renal, in the test on A549 NSCLC, in the test with HL-60(TB) leukemia and with SK-MEL-2 melanoma was more than 100 µM in each case.
As for `O=C(NCCc1ccc(F)cc1)c1cc(/C=C/c2cc(O)ccc2O)ccc1O`, the TGI with DU-145 prostate amounted to 33.2 µM; in the test on 786-0 renal it was 5.03 µM; in the test on CAKI-1 renal it was 15 µM; in the test with OVCAR-8 ovarian, 13.6 µM; with MDA-MB-435 it was 22 µM; in the test on IGROV1 ovarian it was 7.66 µM. For the same compound, the TGI with PC-3 prostate was 10.9 µM; with SN12C renal it was 21.1 µM; with A549 NSCLC, more than 100 µM; in the test on HL-60(TB) leukemia, 15.4 µM; in the test on SK-MEL-2 melanoma it was 7.95 µM.
For `Nc1c(Cl)ncnc1NCC1(CO)CCC1`, the TGI in the test with DU-145 prostate, with 786-0 renal, in the test with OVCAR-8 ovarian, in the test on MDA-MB-435, with IGROV1 ovarian and in the test on PC-3 prostate was more than 100 µM throughout. The TGI in the test with SN12C renal, in the test on A549 NSCLC, in the test with HL-60(TB) leukemia and with SK-MEL-2 melanoma was more than 100 µM throughout.
`CCOC(=O)C(C(N)=O)c1nc2cc([N+](=O)[O-])ccc2nc1/C=C(\O)c1ccc(C)cc1` (stereo not given): the TGI was more than 100 µM in the test on DU-145 prostate; 28.7 µM in the test with 786-0 renal; more than 100 µM in the test on CAKI-1 renal; 40.1 µM in the test with OVCAR-8 ovarian; more than 100 µM with MDA-MB-435; 43 µM with IGROV1 ovarian. For the same compound, the TGI in the test on PC-3 prostate is 40.4 µM; in the test on SN12C renal, 85.5 µM; in the test with A549 NSCLC it was more than 74.1 µM; in the test with SK-MEL-2 melanoma, 48.9 µM.
On to `COc1ccc(/C=C/C=C2C(=O)NC(=S)NC2=O)cc1`, for which the TGI in the test with DU-145 prostate came to 17.7 µM; in the test with 786-0 renal, 5.47 µM; in the test with CAKI-1 renal, 23.8 µM; in the test with OVCAR-8 ovarian it was 13.1 µM; with MDA-MB-435, 7.77 µM; with IGROV1 ovarian, 15.4 µM. In addition, the TGI in the test on PC-3 prostate is 43.8 µM; in the test with SN12C renal it was 19.5 µM; in the test on A549 NSCLC, 46.2 µM; in the test on SK-MEL-2 melanoma, 35.3 µM.
On to `CN(C)c1ccc(C(=C2C=CC(=[N+](C)C)C=C2)c2c(O)c(S(=O)(=O)[O-])cc3cc(S(=O)(=O)O)ccc23)cc1`, for which the TGI in the test on DU-145 prostate, with 786-0 renal, in the test with CAKI-1 renal, in the test on OVCAR-8 ovarian, in the test on MDA-MB-435 and with IGROV1 ovarian was more than 100 µM in each case. Moreover, the TGI in the test with PC-3 prostate, in the test on SN12C renal, in the test with A549 NSCLC and in the test on SK-MEL-2 melanoma was more than 100 µM each time.
As to `O=C(O)CC(Cc1ccccc1)C(=O)O` (stereo not given), the TGI in the test on DU-145 prostate, in the test with 786-0 renal, in the test with CAKI-1 renal, in the test on OVCAR-8 ovarian, in the test on MDA-MB-435 and in the test on IGROV1 ovarian was more than 100 µM in each case. Besides, the TGI in the test on PC-3 prostate, with SN12C renal, with A549 NSCLC and in the test on SK-MEL-2 melanoma was more than 100 µM each time.
Turning to `Brc1ccc2c(c1)[C@H]1CCc3c([nH]c4ccccc34)[C@H]1N2`, the TGI in the test on DU-145 prostate was 25.5 µM; with CAKI-1 renal, 21.8 µM; in the test on OVCAR-8 ovarian, 27.4 µM; in the test on MDA-MB-435 it was 26.2 µM; with IGROV1 ovarian it was 15.6 µM; in the test with PC-3 prostate, 22.4 µM. In addition, the TGI stood at 27.2 µM in the test with SN12C renal, 47.4 µM in the test with A549 NSCLC and 36.4 µM in the test with SK-MEL-2 melanoma.
Take `CCCCOP(=O)(OCCCC)C(NS(=O)(=O)c1ccccc1)(C(=O)OCC)C(F)(F)F` (stereo not given): the TGI in the test on DU-145 prostate is more than 100 µM; in the test on 786-0 renal, 88.1 µM; with CAKI-1 renal it was more than 100 µM; in the test on OVCAR-8 ovarian it was more than 100 µM; in the test with MDA-MB-435, 56.3 µM; with IGROV1 ovarian, 65.6 µM. In addition, the TGI with PC-3 prostate was more than 100 µM; with SN12C renal, 90.4 µM; with A549 NSCLC, more than 100 µM; in the test with HL-60(TB) leukemia it was 47.8 µM.
As to `O=C1N2CCN=C2c2ccccc2C1(O)c1ccccc1` (stereo not given), the TGI in the test on DU-145 prostate, in the test with 786-0 renal, in the test on CAKI-1 renal, in the test on OVCAR-8 ovarian, in the test with MDA-MB-435 and in the test with IGROV1 ovarian was more than 100 µM in each case. Also, the TGI in the test on PC-3 prostate, in the test with SN12C renal, with A549 NSCLC and with HL-60(TB) leukemia was more than 100 µM in each case.
`CC(=O)Nc1ccc(S(=O)(=O)/N=c2/sc(S(N)(=O)=O)nn2C)cc1`: the TGI with DU-145 prostate, in the test on 786-0 renal, in the test on CAKI-1 renal, in the test with OVCAR-8 ovarian, in the test with MDA-MB-435 and in the test on PC-3 prostate was more than 100 µM throughout. In addition, the TGI with A549 NSCLC, in the test with HL-60(TB) leukemia and with SK-MEL-2 melanoma was more than 100 µM in each case.
Consider `CSc1nc(NC2CC2)c2c(n1)Sc1nc3ccccc3n1N=C2`, for which the TGI with DU-145 prostate was 46.1 µM; in the test with 786-0 renal, 21 µM; in the test with CAKI-1 renal, more than 100 µM; in the test with OVCAR-8 ovarian, 85.3 µM; in the test with MDA-MB-435 it was more than 100 µM; in the test on IGROV1 ovarian it was more than 100 µM. The TGI was more than 100 µM in the test on PC-3 prostate, 33.4 µM in the test with SN12C renal, 97 µM in the test on A549 NSCLC and 82.4 µM in the test on SK-MEL-2 melanoma.
`O=C(/C=C/c1ccco1)c1ccc(Nc2ccnc3cc(Cl)ccc23)cc1`: the GI50 in the test on DU-145 prostate is 9.33 µM; in the test on CAKI-1 renal, more than 100 µM; with OVCAR-8 ovarian, more than 100 µM; in the test on MDA-MB-435, more than 100 µM; in the test with IGROV1 ovarian it was 15.2 µM; in the test with PC-3 prostate, 4.99 µM. Moreover, the GI50 with SN12C renal is more than 100 µM; with A549 NSCLC, more than 100 µM; in the test with SK-MEL-2 melanoma it was 76.7 µM. For the same compound, the TGI with DU-145 prostate was more than 100 µM; in the test on CAKI-1 renal, more than 100 µM; with OVCAR-8 ovarian it was more than 100 µM; in the test on MDA-MB-435, more than 100 µM; in the test with IGROV1 ovarian, more than 100 µM; with PC-3 prostate it was 41.3 µM. Further, the TGI in the test with SN12C renal, in the test on A549 NSCLC and with SK-MEL-2 melanoma was more than 100 µM in each case.
With `CCCc1c(OC)c(O)c2c(=O)cc(OC)c3c4c(OC)cc(=O)c5c(O)c(OC)c(CCC)c(c1c23)c54`, the TGI in the test on DU-145 prostate was determined as 13.2 µM; in the test on 786-0 renal it was 13.5 µM; with CAKI-1 renal it was 16.5 µM; in the test on OVCAR-8 ovarian it was 22.6 µM; in the test on MDA-MB-435, 14.3 µM; with IGROV1 ovarian it was 16.2 µM. The TGI was found to be 11.9 µM in the test with PC-3 prostate, 15.3 µM in the test on SN12C renal, 25.8 µM in the test on A549 NSCLC and 22.1 µM in the test with SK-MEL-2 melanoma.
Turning to `COc1cc(CNc2nc3cc(C(F)(F)F)ccc3nc2C(=O)O)cc(OC)c1OC`, the TGI in the test with DU-145 prostate is more than 100 µM; in the test with 786-0 renal, 59.1 µM; in the test with CAKI-1 renal, 78.9 µM; in the test on OVCAR-8 ovarian it was more than 100 µM; in the test on MDA-MB-435, 92.9 µM; in the test with PC-3 prostate, 57.9 µM. In addition, the TGI with SN12C renal came out at 30.2 µM; in the test on A549 NSCLC, 61.5 µM; with HL-60(TB) leukemia, 15.4 µM; in the test on SK-MEL-2 melanoma, 47.1 µM.
Consider `CC1CN=C(c2ccc3c(c2)Cc2cc(C4=NCC(C)N4)ccc2-3)N1` (stereo not given), for which the TGI with DU-145 prostate was more than 100 µM; in the test on 786-0 renal, more than 100 µM; in the test on CAKI-1 renal it was more than 100 µM; in the test with OVCAR-8 ovarian, more than 100 µM; in the test with MDA-MB-435, 63.9 µM; in the test with IGROV1 ovarian it was more than 100 µM. The TGI is more than 100 µM in the test with PC-3 prostate, more than 100 µM in the test on SN12C renal, more than 100 µM in the test with A549 NSCLC and 44.8 µM with SK-MEL-2 melanoma.

Source of the values: PubChem BioAssay (NCI).
